Results as given in paper PMC10486429, “Investigations Using Albumin Binders to Modify the Tissue Distribution Profile of Radiopharmaceuticals Exemplified with Folate Radioconjugates” (Cancers, 2023).

Test system: KB tumor-bearing athymic nude mice
Assay: Biodistribution of 177Lu-RedFols in KB tumor-bearing mice
Assay type: in vivo, mouse
Experimental: Athymic nude mice (Crl:CD1-Foxn^nu) were kept on a folate-deficient rodent diet (ssniff Spezialdiäten GmbH, Soest, Germany) for at least one week prior to inoculation with the tumor cells. Biodistribution studies were performed approx. two weeks after subcutaneous inoculation with KB tumor cells (5 × 10^6 in 100 μL PBS) (Supplementary Materials Section S12). […] Data were presented as the average ± SD of n = 3−4 mice.
Purpose: Biodistribution studies were performed in KB tumor-bearing athymic nude mice (Crl:CD1-Foxnnu) in order to investigate the tissue distribution profiles of the novel radioconjugates. The aim was to compare the impact of the two different albumin binders (4-(p-iodophenyl)butanoate unit vs. 5-(p-iodophenyl)pentanoate unit), and that of the in-corporation of an AMBA linker adjacent to the albumin binder on the distribution profile of the resulting folate radioconjugates.
Methods: The methods are described in the main article. The mice were sacrificed at […]

## CN1c2c(nc(N)[nH]c2=O)NC[C@H]1CNc1ccc(C(=O)N[C@@H](CCC(=O)N[C@@H](CCCCNC(=O)CN2CCN(CC(=O)O)CCN(CC(=O)O)CCN(CC(=O)O)CC2)C(=O)N[C@@H](CCCCNC(=O)CCCCc2ccc(I)cc2)C(=O)O)C(=O)O)cc1 [[^177Lu]Lu-6R-RedFol-24, metal not drawn]
1 h p.i.
  Blood, accumulated activity: 9.0 ± 1.2 % IA/g
  Bone, accumulated activity: 1.2 ± 0.1 % IA/g
  Intestines, accumulated activity: 1.2 ± 0.3 % IA/g
  KB tumor, accumulated activity: 17 ± 2 % IA/g
  Kidneys, accumulated activity: 36 ± 4 % IA/g
  Liver, accumulated activity: 2.6 ± 0.7 % IA/g
  Lung, accumulated activity: 4.6 ± 0.3 % IA/g
  Muscle, accumulated activity: 1.4 ± 0.1 % IA/g
  Salivary glands, accumulated activity: 6.4 ± 0.1 % IA/g
  Spleen, accumulated activity: 1.3 ± 0.2 % IA/g
  Stomach, accumulated activity: 1.5 ± 0.1 % IA/g
  Tumor-to-blood ratio: 2.0 ± 0.4
  Tumor-to-kidney ratio: 0.48 ± 0.02
  Tumor-to-liver ratio: 6.9 ± 1.6
4 h p.i.
  Blood, accumulated activity: 3.2 ± 1.8 % IA/g
  Bone, accumulated activity: 0.87 ± 0.21 % IA/g
  Intestines, accumulated activity: 0.83 ± 0.37 % IA/g
  KB tumor, accumulated activity: 34 ± 6 % IA/g
  Kidneys, accumulated activity: 57 ± 5 % IA/g
  Liver, accumulated activity: 1.9 ± 0.4 % IA/g
  Lung, accumulated activity: 2.4 ± 1.1 % IA/g
  Muscle, accumulated activity: 1.3 ± 0.2 % IA/g
  Salivary glands, accumulated activity: 8.7 ± 0.9 % IA/g
  Spleen, accumulated activity: 0.83 ± 0.25 % IA/g
  Stomach, accumulated activity: 1.4 ± 0.5 % IA/g
  Tumor-to-blood ratio: 12 ± 5
  Tumor-to-kidney ratio: 0.59 ± 0.04
  Tumor-to-liver ratio: 18 ± 3
24 h p.i.
  Blood, accumulated activity: 0.06 ± 0.01 % IA/g
  Bone, accumulated activity: 0.49 ± 0.09 % IA/g
  Intestines, accumulated activity: 0.28 ± 0.11 % IA/g
  KB tumor, accumulated activity: 33 ± 2 % IA/g
  Kidneys, accumulated activity: 62 ± 11 % IA/g
  Liver, accumulated activity: 1.2 ± 0.2 % IA/g
  Lung, accumulated activity: 0.60 ± 0.07 % IA/g
  Muscle, accumulated activity: 0.75 ± 0.20 % IA/g
  Salivary glands, accumulated activity: 4.5 ± 0.8 % IA/g
  Spleen, accumulated activity: 0.51 ± 0.13 % IA/g
  Stomach, accumulated activity: 0.54 ± 0.12 % IA/g
  Tumor-to-blood ratio: 583 ± 105
  Tumor-to-kidney ratio: 0.54 ± 0.07
  Tumor-to-liver ratio: 28 ± 7

## CN1c2c(nc(N)[nH]c2=O)NCC1CNc1ccc(C(=O)NC(CCC(=O)NC(CCCCNC(=O)CN2CCN(CC(=O)[O-])CCN(CC(=O)[O-])CCN(CC(=O)[O-])CC2)C(=O)NC(CCCCNC(=O)c2ccc(CNC(=O)CCCc3ccc(I)cc3)cc2)C(=O)O)C(=O)O)cc1.[177Lu+3] (stereo not drawn) [[^177Lu]Lu-6S-RedFol-3]
1 h p.i.
  Blood, accumulated activity: 22 ± 1 % IA/g
  Bone, accumulated activity: 1.9 ± 0.1 % IA/g
  Intestines, accumulated activity: 2.3 ± 0.8 % IA/g
  KB tumor, accumulated activity: 7.9 ± 1.2 % IA/g
  Kidneys, accumulated activity: 12 ± 1 % IA/g
  Liver, accumulated activity: 3.7 ± 0.2 % IA/g
  Lung, accumulated activity: 9.3 ± 1.7 % IA/g
  Muscle, accumulated activity: 1.4 ± 0.1 % IA/g
  Salivary glands, accumulated activity: 4.1 ± 0.3 % IA/g
  Spleen, accumulated activity: 2.4 ± 0.2 % IA/g
  Stomach, accumulated activity: 1.8 ± 0.2 % IA/g
  Tumor-to-blood ratio: 0.36 ± 0.06
  Tumor-to-kidney ratio: 0.66 ± 0.09
  Tumor-to-liver ratio: 2.1 ± 0.4
4 h p.i.
  Blood, accumulated activity: 14 ± 1 % IA/g
  Bone, accumulated activity: 1.8 ± 0.1 % IA/g
  Intestines, accumulated activity: 1.7 ± 0.4 % IA/g
  KB tumor, accumulated activity: 16 ± 1 % IA/g
  Kidneys, accumulated activity: 11 ± 2 % IA/g
  Liver, accumulated activity: 2.4 ± 0.2 % IA/g
  Lung, accumulated activity: 7.7 ± 2.6 % IA/g
  Muscle, accumulated activity: 1.2 ± 0.2 % IA/g
  Salivary glands, accumulated activity: 2.8 ± 0.4 % IA/g
  Spleen, accumulated activity: 1.7 ± 0.2 % IA/g
  Stomach, accumulated activity: 1.3 ± 0.1 % IA/g
  Tumor-to-blood ratio: 1.1 ± 0.1
  Tumor-to-kidney ratio: 1.4 ± 0.2
  Tumor-to-liver ratio: 6.5 ± 0.2
24 h p.i.
  Blood, accumulated activity: 8.7 ± 1.1 % IA/g
  Bone, accumulated activity: 1.2 ± 0.2 % IA/g
  Intestines, accumulated activity: 1.0 ± 0.1 % IA/g
  KB tumor, accumulated activity: 41 ± 2 % IA/g
  Kidneys, accumulated activity: 30 ± 1 % IA/g
  Liver, accumulated activity: 1.8 ± 0.4 % IA/g
  Lung, accumulated activity: 4.8 ± 0.7 % IA/g
  Muscle, accumulated activity: 1.0 ± 0.2 % IA/g
  Salivary glands, accumulated activity: 2.3 ± 0.4 % IA/g
  Spleen, accumulated activity: 2.3 ± 0.1 % IA/g
  Stomach, accumulated activity: 1.1 ± 0.1 % IA/g
  Tumor-to-blood ratio: 4.7 ± 0.3
  Tumor-to-kidney ratio: 1.3 ± 0.1
  Tumor-to-liver ratio: 24 ± 4

## CN1c2c(nc(N)[nH]c2=O)NC[C@H]1CNc1ccc(C(=O)N[C@@H](CCC(=O)N[C@@H](CCCCNC(=O)CN2CCN(CC(=O)O)CCN(CC(=O)O)CCN(CC(=O)O)CC2)C(=O)N[C@@H](CCCCNC(=O)c2ccc(CNC(=O)CCCc3ccc(I)cc3)cc2)C(=O)O)C(=O)O)cc1 [[^177Lu]Lu-6R-RedFol-3, metal not drawn]
  Tumor-to-kidney ratio, comparison among all folate radioconjugates: highest tumor-to-kidney ratio
1 h p.i.
  Blood, accumulated activity: 26 ± 3 % IA/g
  Bone, accumulated activity: 1.8 ± 0.5 % IA/g
  Intestines, accumulated activity: 2.6 ± 0.8 % IA/g
  KB tumor, accumulated activity: 8.5 ± 1.9 % IA/g
  Kidneys, accumulated activity: 8.0 ± 1.3 % IA/g
  Liver, accumulated activity: 3.7 ± 0.4 % IA/g
  Lung, accumulated activity: 11 ± 1 % IA/g
  Muscle, accumulated activity: 1.0 ± 0.1 % IA/g
  Salivary glands, accumulated activity: 5.2 ± 1.5 % IA/g
  Spleen, accumulated activity: 2.9 ± 0.4 % IA/g
  Stomach, accumulated activity: 1.9 ± 0.5 % IA/g
  Tumor-to-blood ratio: 0.33 ± 0.03
  Tumor-to-kidney ratio: 1.1 ± 0.1
  Tumor-to-liver ratio: 2.3 ± 0.4
4 h p.i.
  Blood, accumulated activity: 17 ± 1 % IA/g
  Bone, accumulated activity: 1.8 ± 0.1 % IA/g
  Intestines, accumulated activity: 2.0 ± 0.2 % IA/g
  KB tumor, accumulated activity: 18 ± 2 % IA/g
  Kidneys, accumulated activity: 7.6 ± 0.4 % IA/g
  Liver, accumulated activity: 3.0 ± 0.1 % IA/g
  Lung, accumulated activity: 8.2 ± 0.6 % IA/g
  Muscle, accumulated activity: 1.3 ± 0.1 % IA/g
  Salivary glands, accumulated activity: 4.2 ± 0.1 % IA/g
  Spleen, accumulated activity: 2.2 ± 0.2 % IA/g
  Stomach, accumulated activity: 1.5 ± 0.1 % IA/g
  Tumor-to-blood ratio: 1.1 ± 0.1
  Tumor-to-kidney ratio: 2.4 ± 0.2
  Tumor-to-liver ratio: 6.0 ± 0.8
24 h p.i.
  Blood, accumulated activity: 7.9 ± 0.7 % IA/g
  Bone, accumulated activity: 1.1 ± 0.1 % IA/g
  Intestines, accumulated activity: 0.96 ± 0.15 % IA/g
  KB tumor, accumulated activity: 39 ± 4 % IA/g
  Kidneys, accumulated activity: 12 ± 2 % IA/g
  Liver, accumulated activity: 1.9 ± 0.3 % IA/g
  Lung, accumulated activity: 4.1 ± 0.1 % IA/g
  Muscle, accumulated activity: 1.0 ± 0.1 % IA/g
  Salivary glands, accumulated activity: 4.0 ± 1.1 % IA/g
  Spleen, accumulated activity: 2.2 ± 0.1 % IA/g
  Stomach, accumulated activity: 1.1 ± 0.1 % IA/g
  Tumor-to-blood ratio: 5.0 ± 0.4
  Tumor-to-kidney ratio: 3.3 ± 0.4
  Tumor-to-liver ratio: 21 ± 1

## CN1c2c(nc(N)[nH]c2=O)NCC1CNc1ccc(C(=O)NC(CCC(=O)NC(CCCCNC(=O)CN2CCN(CC(=O)[O-])CCN(CC(=O)[O-])CCN(CC(=O)[O-])CC2)C(=O)NC(CCCCNC(=O)c2ccc(CNC(=O)CCCCc3ccc(I)cc3)cc2)C(=O)O)C(=O)O)cc1.[177Lu+3] (stereo not drawn) [[^177Lu]Lu-6S-RedFol-25]
1 h p.i.
  Blood, accumulated activity: 13 ± 2 % IA/g
  Bone, accumulated activity: 1.4 ± 0.2 % IA/g
  Intestines, accumulated activity: 1.3 ± 0.3 % IA/g
  KB tumor, accumulated activity: 17 ± 2 % IA/g
  Kidneys, accumulated activity: 38 ± 5 % IA/g
  Liver, accumulated activity: 2.3 ± 0.1 % IA/g
  Lung, accumulated activity: 5.5 ± 0.8 % IA/g
  Muscle, accumulated activity: 1.2 ± 0.2 % IA/g
  Salivary glands, accumulated activity: 2.2 ± 1.5 % IA/g
  Spleen, accumulated activity: 1.4 ± 0.2 % IA/g
  Stomach, accumulated activity: 1.3 ± 0.2 % IA/g
  Tumor-to-blood ratio: 1.3 ± 0.1
  Tumor-to-kidney ratio: 0.45 ± 0.02
  Tumor-to-liver ratio: 7.4 ± 0.6
4 h p.i.
  Blood, accumulated activity: 8.4 ± 2.8 % IA/g
  Bone, accumulated activity: 1.1 ± 0.4 % IA/g
  Intestines, accumulated activity: 1.2 ± 0.4 % IA/g
  KB tumor, accumulated activity: 32 ± 8 % IA/g
  Kidneys, accumulated activity: 88 ± 23 % IA/g
  Liver, accumulated activity: 1.9 ± 0.5 % IA/g
  Lung, accumulated activity: 4.1 ± 1.4 % IA/g
  Muscle, accumulated activity: 0.92 ± 0.27 % IA/g
  Salivary glands, accumulated activity: 1.9 ± 1.1 % IA/g
  Spleen, accumulated activity: 1.3 ± 0.3 % IA/g
  Stomach, accumulated activity: 1.0 ± 0.4 % IA/g
  Tumor-to-blood ratio: 4.0 ± 1.2
  Tumor-to-kidney ratio: 0.37 ± 0.05
  Tumor-to-liver ratio: 18 ± 5
24 h p.i.
  Blood, accumulated activity: 0.15 ± 0.09 % IA/g
  Bone, accumulated activity: 0.14 ± 0.05 % IA/g
  Intestines, accumulated activity: 0.10 ± 0.03 % IA/g
  KB tumor, accumulated activity: 37 ± 4 % IA/g
  Kidneys, accumulated activity: 121 ± 13 % IA/g
  Liver, accumulated activity: 0.56 ± 0.07 % IA/g
  Lung, accumulated activity: 0.27 ± 0.06 % IA/g
  Muscle, accumulated activity: 0.10 ± 0.02 % IA/g
  Salivary glands, accumulated activity: 0.49 ± 0.04 % IA/g
  Spleen, accumulated activity: 0.42 ± 0.05 % IA/g
  Stomach, accumulated activity: 0.13 ± 0.04 % IA/g
  Tumor-to-blood ratio: 316 ± 150
  Tumor-to-kidney ratio: 0.31 ± 0.02
  Tumor-to-liver ratio: 67 ± 16
